The results in this text go back to patent US9765067B2, “Thiophen-2-yl-pyridin-2-yl-1H-pyrazole-4-carboxylic acid derivatives and the use thereof as soluble guanylate cyclase activators” (Novartis AG, priority 2014, dated 2017).

For this assay, the target named is T1, soluble guanylate cyclase (human GUCYA3/GUCYB3) overexpressed in CHO cells (Homo sapiens, UniProt Q02108+Q02153).
T1 construct: expressed in transfected cells
T1 sequence (Q02108 1-690 partner): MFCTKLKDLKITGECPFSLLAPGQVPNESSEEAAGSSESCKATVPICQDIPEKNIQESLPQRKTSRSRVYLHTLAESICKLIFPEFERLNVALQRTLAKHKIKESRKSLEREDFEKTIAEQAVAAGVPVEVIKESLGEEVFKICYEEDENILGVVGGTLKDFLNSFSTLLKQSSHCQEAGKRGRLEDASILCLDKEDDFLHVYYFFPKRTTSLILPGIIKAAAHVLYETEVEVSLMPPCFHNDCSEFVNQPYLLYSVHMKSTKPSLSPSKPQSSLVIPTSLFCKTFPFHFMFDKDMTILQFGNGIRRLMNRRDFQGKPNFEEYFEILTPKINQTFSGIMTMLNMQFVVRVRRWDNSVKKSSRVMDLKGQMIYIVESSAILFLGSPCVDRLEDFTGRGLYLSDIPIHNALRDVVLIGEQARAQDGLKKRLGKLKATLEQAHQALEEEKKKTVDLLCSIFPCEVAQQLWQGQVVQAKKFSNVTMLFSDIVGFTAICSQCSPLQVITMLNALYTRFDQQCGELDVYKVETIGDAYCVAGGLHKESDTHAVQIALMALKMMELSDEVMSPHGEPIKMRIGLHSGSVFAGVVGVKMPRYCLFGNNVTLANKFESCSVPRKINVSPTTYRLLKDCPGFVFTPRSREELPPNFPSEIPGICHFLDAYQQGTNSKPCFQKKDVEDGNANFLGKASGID
T1 sequence (Q02153 1-619): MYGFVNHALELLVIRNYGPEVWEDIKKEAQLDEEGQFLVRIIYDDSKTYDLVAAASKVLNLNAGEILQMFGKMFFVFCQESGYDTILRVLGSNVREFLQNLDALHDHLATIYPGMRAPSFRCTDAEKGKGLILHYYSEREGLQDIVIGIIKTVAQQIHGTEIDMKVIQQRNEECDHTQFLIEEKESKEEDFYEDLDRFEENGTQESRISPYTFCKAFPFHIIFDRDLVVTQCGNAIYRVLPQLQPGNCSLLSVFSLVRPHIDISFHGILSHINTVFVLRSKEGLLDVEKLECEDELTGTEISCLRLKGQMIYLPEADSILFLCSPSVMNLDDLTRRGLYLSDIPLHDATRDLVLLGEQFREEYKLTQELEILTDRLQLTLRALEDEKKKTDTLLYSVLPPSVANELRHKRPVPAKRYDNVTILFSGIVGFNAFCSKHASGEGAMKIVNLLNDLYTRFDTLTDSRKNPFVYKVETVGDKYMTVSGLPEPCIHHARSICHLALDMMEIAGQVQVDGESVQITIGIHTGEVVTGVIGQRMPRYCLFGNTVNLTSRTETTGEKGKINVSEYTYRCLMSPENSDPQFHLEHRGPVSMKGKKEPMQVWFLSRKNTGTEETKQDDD
In words: CHO cellular assay (cGMP production, HTRF). The format is cell-based. The conditions noted are these: CHO K1 clone 8E10 overexpressing human sGC, Cisbio HTRF, 1 h room temperature, 1 mM IBMX, 20 uM ODQ, minimum quantification limit 0.5 nM. An outline of the steps:
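Stable CHO K1 clone expressing human GUCYA3/GUCYB3. Compounds applied 1 h at room temperature in HBSS, 0.1% BSA, 1 mM IBMX, 20 uM ODQ, 0.5% DMSO. cGMP measured by HTRF and interpolated from a standard curve; EC50 from 4-parameter sigmoidal fit.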
Background: TR-FRET usually uses a lanthanide donor and a delayed reading to cut background.

The structures appear in SMILES notation. Where “and” joins values, the source holds several entries; their conditions need not be identical. Equal entries are not always repeated. Bounds are passed on as bounds.

As for `CCc1cc(OCc2cc(C)sc2-c2cccc(-n3ncc(C(=O)O)c3C(F)(F)F)n2)ccc1C1CCN(C(=O)CC2CC2)CC1` [Example 12-4, 1-(6-(3-((4-(1-(2-Cyclopropylacetyl)piperidin-4-yl)-3-ethylphenoxy)methyl)-5-methylthiophen-2-yl)pyridin-2-yl)-5-(trifluoromethyl)-1H-pyrazole-4-carboxylic acid], the EC50 (in general, the midpoint of the concentration-response curve) was at most 0.5 nM.
For the compound `Cc1cc(C2CCN(C(=O)C3CC(O)C3)CC2)ccc1OCc1ccsc1-c1cccc(-n2ncc(C(=O)O)c2C(F)(F)F)n1` (stereo not shown) [Example 12-5, 1-(6-(3-((4-(1-(3-Hydroxycyclobutanecarbonyl)piperidin-4-yl)-2-methylphenoxy)methyl)thiophen-2-yl)pyridin-2-yl)-5-(trifluoromethyl)-1H-pyrazole-4-carboxylic acid], the response was half-maximal at 46 nM (EC50).
Take `Cc1cc(C2CCN(C(=O)C3COC3)CC2)ccc1OCc1ccsc1-c1cccc(-n2ncc(C(=O)O)c2C(F)(F)F)n1` [Example 12-7, 1-(6-(3-((2-Methyl-4-(1-(oxetane-3-carbonyl)piperidin-4-yl)phenoxy)methyl)thiophen-2-yl)pyridin-2-yl)-5-(trifluoromethyl)-1H-pyrazole-4-carboxylic acid]: the 50% effective concentration (EC50) is 7.5 nM.
To `CCc1cc(OCc2cc(C)sc2-c2cccc(-n3ncc(C(=O)O)c3C)n2)ccc1C1CCN(C(=O)CC2CC2)CC1` [Example 12-8, 1-(6-(3-((4-(1-(2-Cyclopropylacetyl)piperidin-4-yl)-3-ethylphenoxy)methyl)-5-methylthiophen-2-yl)pyridin-2-yl)-5-methyl-1H-pyrazole-4-carboxylic acid] belongs 4.4 nM and 1 nM; to `CCc1cc(OCc2cc(C)sc2-c2cccc(-n3ncc(C(=O)O)c3C(F)(F)F)n2)ccc1C1CCN(C(=O)C(C)(C)CO)CC1` [Example 12-10, 1-(6-(3-((3-Ethyl-4-(1-(3-hydroxy-2,2-dimethylpropanoyl)piperidin-4-yl)phenoxy)methyl)-5-methylthiophen-2-yl)pyridin-2-yl)-5-(trifluoromethyl)-1H-pyrazole-4-carboxylic acid], 33 nM.
The same measure for `CCc1cc(OCc2cc(C)sc2-c2cccc(-n3ncc(C(=O)O)c3C(F)(F)F)n2)ccc1C1CCN(C(=O)CO)CC1` [Example 12-11, 1-(6-(3-((3-Ethyl-4-(1-(2-hydroxyacetyl)piperidin-4-yl)phenoxy)methyl)-5-methylthiophen-2-yl)pyridin-2-yl)-5-(trifluoromethyl)-1H-pyrazole-4-carboxylic acid]: 36 nM.
As for `Cc1cc(C2CCN(CC(F)(F)F)CC2)ccc1OCc1ccsc1-c1cccc(-n2ncc(C(=O)O)c2C(F)(F)F)n1` [Example 13, 1-(6-(3-((2-Methyl-4-(1-(2,2,2-trifluoroethyl)piperidin-4-yl)phenoxy)methyl)thiophen-2-yl)pyridin-2-yl)-5-(trifluoromethyl)-1H-pyrazole-4-carboxylic acid], a half-maximal response (EC50) required 1 nM.
In the case of `O=C(O)c1cnn(-c2cccc(-c3sccc3COc3ccc(C4CCN(CC(F)(F)F)CC4)cc3)n2)c1C(F)(F)F` [Example 14-1, 1-(6-(3-((4-(1-(2,2,2-Trifluoroethyl)piperidin-4-yl)phenoxy)methyl)thiophen-2-yl)pyridin-2-yl)-5-(trifluoromethyl)-1H-pyrazole-4-carboxylic acid], a half-maximal effect (EC50) was put at 12 nM.
The compound `Cc1cc(C2CCN(CC3CC3)CC2)ccc1OCc1ccsc1-c1cccc(-n2ncc(C(=O)O)c2C(F)(F)F)n1` [Example 14-2, 1-(6-(3-((4-(1-(Cyclopropylmethyl)piperidin-4-yl)-2-methylphenoxy)methyl)thiophen-2-yl)pyridin-2-yl)-5-(trifluoromethyl)-1H-pyrazole-4-carboxylic acid] yielded an EC50 of 430 nM.
With `Cc1cc(C2CCN(C(=O)C3CC3)CC2)ccc1NCc1ccsc1-c1cccc(-n2ncc(C(=O)O)c2C)n1` [Example 15, 1-(6-(3-(((4-(1-(Cyclopropanecarbonyl)piperidin-4-yl)-2-methylphenyl)amino)methyl)thiophen-2-yl)pyridin-2-yl)-5-methyl-1H-pyrazole-4-carboxylic acid], the EC50 was at most 0.5 nM.
`Cc1cc(C2CCN(C(=O)C3CC3)CC2)ccc1NCc1ccsc1-c1cccc(-n2ncc(C(=O)O)c2C(F)(F)F)n1` [Example 16-1, 1-(6-(3-(((4-(1-(Cyclopropanecarbonyl)piperidin-4-yl)-2-methylphenyl)amino)methyl)thiophen-2-yl)pyridin-2-yl)-5-(trifluoromethyl)-1H-pyrazole-4-carboxylic acid] came in with a concentration giving a half-maximal response (EC50) of 8.8 nM.
The compound `Cc1cc(CNc2ccc(C3CCN(C(=O)C4CC4)CC3)cc2C)c(-c2cccc(-n3ncc(C(=O)O)c3C)n2)s1` [Example 16-2, 1-(6-(3-(((4-(1-(Cyclopropanecarbonyl)piperidin-4-yl)-2-methylphenyl)amino)methyl)-5-methylthiophen-2-yl)pyridin-2-yl)-5-methyl-1H-pyrazole-4-carboxylic acid] gave an EC50 of 1 nM.
In turn, `Cc1cc(CNc2ccc(C3CCN(C(=O)C4CC4)CC3)cc2)c(-c2cccc(-n3ncc(C(=O)O)c3C)n2)s1` [Example 16-3, 1-(6-(3-(((4-(1-(Cyclopropanecarbonyl)piperidin-4-yl)phenyl)amino)methyl)-5-methylthiophen-2-yl)pyridin-2-yl)-5-methyl-1H-pyrazole-4-carboxylic acid] yielded an EC50 of at most 0.5 nM.
As to `CCc1c(C)sc(-c2cccc(-n3ncc(C(=O)O)c3C(F)(F)F)n2)c1COc1ccc(C2CCN(C(=O)C3CC3)CC2)cc1C` [Example 17, 1-(6-(3-((4-(1-(Cyclopropanecarbonyl)piperidin-4-yl)-2-methylphenoxy)methyl)-4-ethyl-5-methylthiophen-2-yl)pyridin-2-yl)-5-(trifluoromethyl)-1H-pyrazole-4-carboxylic acid], the EC50 was 1 nM.
In turn, `Cc1cc(C2CCN(C(=O)C3CC3)CC2)ccc1OCc1c(-c2cccc(-n3ncc(C(=O)O)c3C(F)(F)F)n2)sc(C)c1C(C)C` [Example 18-1, 1-(6-(3-((4-(1-(Cyclopropanecarbonyl)piperidin-4-yl)-2-methylphenoxy)methyl)-4-isopropyl-5-methylthiophen-2-yl)pyridin-2-yl)-5-(trifluoromethyl)-1H-pyrazole-4-carboxylic acid] returned a half-maximal effective concentration (EC50) of 7 nM.
To `CCc1c(C(=O)O)cnn1-c1cccc(-c2sc(C)cc2COc2ccc(C3CCN(CC(F)(F)F)CC3)cc2C)n1` [Example 18-2, 5-Ethyl-1-(6-(5-methyl-3-((2-methyl-4-(1-(2,2,2-trifluoroethyl)piperidin-4-yl)phenoxy)methyl)thiophen-2-yl)pyridin-2-yl)-1H-pyrazole-4-carboxylic acid] belongs 2 nM.
Consider `CCc1c(C(=O)O)cnn1-c1cccc(-c2sc(C)c(C)c2COc2ccc(C3CCN(CC(F)(F)F)CC3)cc2C)n1` [Example 18-3, 1-(6-(4,5-Dimethyl-3-((2-methyl-4-(1-(2,2,2-trifluoroethyl)piperidin-4-yl)phenoxy)methyl)thiophen-2-yl)pyridin-2-yl)-5-ethyl-1H-pyrazole-4-carboxylic acid], for which the half-maximal effective concentration (EC50) came out at 2 nM.
The compound `CCc1csc(-c2cccc(-n3ncc(C(=O)O)c3C(F)(F)F)n2)c1COc1ccc(C2CCN(C(=O)C3CC3)CC2)cc1C` [Example 18-4, 1-(6-(3-((4-(1-(Cyclopropanecarbonyl)piperidin-4-yl)-2-methylphenoxy)methyl)-4-ethylthiophen-2-yl)pyridin-2-yl)-5-(trifluoromethyl)-1H-pyrazole-4-carboxylic acid] came in with a 50% effective concentration (EC50) of 5.9 nM.
The compound `Cc1cc(C2CCN(CC(F)(F)F)CC2)ccc1OCc1c(-c2cccc(-n3ncc(C(=O)O)c3C(F)(F)F)n2)sc(C)c1C` [Example 18-5, 1-(6-(4,5-Dimethyl-3-((2-methyl-4-(1-(2,2,2-trifluoroethyl)piperidin-4-yl)phenoxy)methyl)thiophen-2-yl)pyridin-2-yl)-5-(trifluoromethyl)-1H-pyrazole-4-carboxylic acid] returned a 50% effective concentration (EC50) of 3.5 nM.
